The values that follow come from PubChem BioAssay (NCI).

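Values below derive from 48-hour exposures of cells grown in 96-well plates, with endpoints linearly interpolated between the two concentrations bracketing the appropriate inhibition level. GI50 is the concentration that inhibits growth by half. TGI: total growth inhibition.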

Holding throughout (assay): NCI anticancer screen, dose series, 48 h
Test [1] has as its system ACHN renal.
The test system of test [2] is COLO 205 colon.
Test [3] relates to MOLT-4 leukemia.
Test [4] deals with OVCAR-3 ovarian.
Test [5] deals with HT29 colon.
Test [6] has as its system HCT-15 colon.
Test [7] concerns SF-268 CNS.
Test [8] concerns SK-MEL-2 melanoma.
Test [9] has as its system NCI-H23 lung.
Test [10] concerns SK-OV-3 ovarian.

On to `O=C(c1ccccc1)c1c(CC(O)c2ccncc2)n(C(=O)c2ccccc2)c2ccccc12` (stereo unspecified), for which the TGI in test [1] is 67.5 µM; in test [2], 33.7 µM; in [3], 42.1 µM; in test [4], 28.9 µM; in [5], 33.2 µM; in test [6], 38.7 µM. Also, the TGI is 49.3 µM in test [7], 31 µM in test [8] and 35 µM in [9].
For the compound `O=c1c2cc(F)ccc2sc2c(NCCCNCCO)nc3ccccc3c12`, the GI50 in test [1] is 1.67 µM; in test [2], 2.08 µM; in test [4], 1.9 µM; in test [5], 1.75 µM; in test [6] it was 1.63 µM; in test [7], 1.59 µM. Besides, the GI50 in [8] was 1.94 µM; in test [9], 1.72 µM. For the same compound, the TGI in test [1] was 3.03 µM; in test [2], 4.66 µM; in [4], 3.55 µM; in test [5], 3.43 µM; in [6], 3.12 µM; in test [7], 3.21 µM. Further, the TGI in test [8] was found to be 4.01 µM; in test [9], 3.22 µM.
As for `CCC(=O)Nc1ccc(N2C(=O)/C(=C/c3ccc(OC)cc3)N=C2c2ccccc2)cc1`, the GI50 in [1] was 5.62 µM; in [2], 9.23 µM; in test [3] it was 1.06 µM; in test [4], over 50 µM; in test [5], 5.91 µM; in test [6], 2.77 µM. Besides, the figures for the GI50 in [7], in [8] and in test [9] were 4.88 µM, over 50 µM and 13.3 µM, respectively. The TGI in test [1] is 16 µM; in test [2], over 50 µM; in [3], over 50 µM; in [4], over 50 µM; in [5], over 50 µM; in test [6] it was over 50 µM. The TGI in test [7], in test [8] and in test [9] was over 50 µM throughout.
For the compound `O=C(NCCNCCO)c1cccc2ccc(-c3ccccc3)nc12`, the TGI in [1] was 5.65 µM; in test [2] it was 13.6 µM; in test [4] it was 25.1 µM; in test [5] it was 14.6 µM; in [6], 14.8 µM; in test [7], 19 µM. The TGI in test [8] is 20.2 µM; in test [10], 27.7 µM; in [9] it was 15.3 µM.
Take `N#CC1(C#N)C(c2ccccc2)C=CC12OCCCO2` (stereo unspecified): the TGI in [1] was over 100 µM; in [2], 93.6 µM; in [3] it was 98.1 µM; in [4], over 100 µM; in test [5], over 100 µM; in [7] it was over 100 µM. Besides, the TGI in test [8] was over 100 µM; in test [10], over 100 µM; in [9], 91.4 µM.
In the case of `Fc1cccc(F)c1C(Nc1nncs1)Nc1nncs1`, the TGI in test [1], in test [2], in test [4], in test [5], in [6] and in test [7] was over 100 µM each time. Moreover, the TGI in test [8], in [10] and in test [9] was over 100 µM each time.
In the case of `C=C1[C@@H](O)O[C@H]2[C@H]1C[C@H](OC(C)=O)[C@]13C(=O)O[C@H]4C[C@](C)(O)[C@H]([C@H]41)C31C=C(C)[C@]2(O)O1`, the GI50 in [1] was 49.8 µM; in test [2], 48.9 µM; in test [3], 80.6 µM; in [4] it was 7.43 µM; in [5] it was 75.4 µM; in [6], 49.2 µM. Besides, the GI50 in [7] was 34.5 µM; in [8], 18.6 µM; in test [10], over 100 µM. Also, the TGI in [1] is over 100 µM; in test [2], over 100 µM; in [3] it was over 100 µM; in test [4] it was 32.6 µM; in test [5], over 100 µM; in test [6], over 100 µM. For the same compound, the TGI was over 100 µM in [7], 59.7 µM in [8] and over 100 µM in test [10].
Take `CC(CO)(Nc1ccc([N+](=O)[O-])cc1[N+](=O)[O-])C(=O)O` (stereo unspecified): the TGI was 32.7 µM in [1]; 32.8 µM in test [2]; 42 µM in [4]; 30.4 µM in [5]; 31.4 µM in test [6]; 48.9 µM in test [7]. Besides, the TGI in [8] was 55.4 µM; in test [9], 62.4 µM.
As to `COc1cc(-c2nn(-c3cccc(NC(=O)CCN4CCN(Cc5ccccc5)CC4)c3)cc2-c2ccncc2)ccc1Cl`, the GI50 was 1.2 µM in test [1]; 1.15 µM in test [3]; 0.395 µM in [4]; 0.314 µM in test [5]; 0.635 µM in [6]; 1.05 µM in [7]. Further, the GI50 in test [8] is 1.39 µM; in test [10], 4.86 µM; in [9], 1.73 µM. Moreover, the TGI in test [1] came out at 12.8 µM; in test [3], 5.8 µM; in [4], 1.77 µM; in [5] it was 1.55 µM; in test [6], 3.72 µM; in test [7], 3.84 µM. Moreover, the values for the TGI in test [8], in test [10] and in [9] were 4.14 µM, 20.6 µM and 9.26 µM, respectively.
Consider `Cc1ccc(C2C3Cc4ccccc4C3=NN2c2ccc(S(=O)(=O)/N=c3\scc(-c4ccccc4)n3-c3ccccc3)cc2)cc1` (stereo unspecified), for which the GI50 in test [1] was 21.6 µM; in test [2], 23.3 µM; in test [3], 12.8 µM; in test [4] it was 16.6 µM; in [6] it was 25.4 µM; in [7] it was 16.7 µM. Besides, the GI50 in test [8] was 21.9 µM; in test [10], 33.1 µM. The TGI was 50.3 µM in [1]; 52.1 µM in test [2]; 31.1 µM in test [3]; 43.7 µM in test [4]; 79.2 µM in test [6]; 42 µM in test [7]. Moreover, the values for the TGI in [8] and in test [10] were 52.6 µM and over 100 µM, respectively.
For the compound `COc1ccc(OC(=O)CC2Cc3cc(OC)c(OC)c(OC)c3-c3ccc(SC)c(=O)cc32)cc1` (stereo unspecified), the TGI was over 57.7 µM in [1]; over 100 µM in test [2]; over 100 µM in [3]; over 100 µM in test [5]; over 37.7 µM in test [6]; over 100 µM in test [7]. The TGI in test [8] amounted to 59 µM; in [10] it was 61.4 µM; in test [9] it was 14.9 µM.
On to `N#CNc1nc(N)c(-c2ccc(Cl)cc2)c(C(=O)Nc2nccs2)n1`, for which the TGI in test [1], in test [3], in test [4], in test [5], in test [6] and in test [7] was over 100 µM each time. Moreover, the TGI in test [8] and in [9] was over 100 µM in each case.
Turning to `Cn1ccnc1Oc1ccc(Cl)cc1`, the TGI in test [1] is 25.4 µM; in test [2], 25.7 µM; in [3] it was 7.01 µM; in [5], 26.6 µM; in [6], 23.9 µM; in test [7], 99.4 µM. The TGI in test [8] was 39.5 µM; in test [10], over 100 µM; in test [9], 39.5 µM.
Turning to `CCCC(S(=O)(=O)c1ccccc1)S(=O)(=O)c1ccccc1`, the TGI in test [1], in test [3], in test [4], in [5], in test [6] and in test [8] was over 100 µM each time. For the same compound, the TGI in test [10] and in [9] was over 100 µM throughout.
`CC1=NN(c2ccccc2)C(=O)/C1=C\c1ccc([N+](=O)[O-])cc1`: the TGI is over 100 µM in test [1]; 33 µM in [2]; 48.4 µM in test [3]; 97 µM in [5]; over 100 µM in test [6]; over 100 µM in test [7]. The TGI in [8] worked out at 56 µM; in [10], 58.7 µM; in test [9], 91 µM.
For the compound `O=C(CN1N=C(c2ccc(F)cc2)CCC1=O)Nc1nc2ccccc2s1`, the GI50 in test [1] was 4.23 µM; in test [2], over 100 µM; in test [3] it was 7.61 µM; in test [4], 1.99 µM; in [5] it was 3.32 µM; in test [6], 41.6 µM. For the same compound, the GI50 in [7] was 5.59 µM; in [8] it was over 89.8 µM; in [10], over 100 µM. Also, the TGI in test [1] is over 100 µM; in test [2], over 100 µM; in test [3], 31.5 µM; in [4] it was 4.16 µM; in [5], 11.5 µM; in test [6] it was over 100 µM. Also, the TGI in [7] is over 35.9 µM; in test [8], over 100 µM; in test [10], over 100 µM.
